Results taken from ChEMBL document CHEMBL3044745, “Synthesis and evaluation of biological and nonlinear optical properties of some novel 2,4-disubstituted [1,3]-thiazoles carrying 2-(aryloxymethyl)-phenyl moiety” (2013).

Experiments:
Type in all cases: functional
Aspergillus niger = assay: Antifungal activity against Aspergillus niger assessed as growth inhibition at 10 ug/disk; conditions: read-out: IZ
Candida albicans = assay: Antifungal activity against Candida albicans assessed as growth inhibition at 10 ug/disk; conditions: read-out: IZ
Pseudomonas aeruginosa = assay: Antibacterial activity against Pseudomonas aeruginosa assessed as growth inhibition at 10 ug/disk; conditions: read-out: IZ
Escherichia coli = assay: Antibacterial activity against Escherichia coli assessed as growth inhibition at 10 ug/disk; conditions: read-out: IZ
Bacillus subtilis = assay: Antibacterial activity against Bacillus subtilis assessed as growth inhibition at 10 ug/disk; conditions: read-out: IZ
Staphylococcus aureus = assay: Antibacterial activity against Staphylococcus aureus assessed as growth inhibition at 10 ug/disk; conditions: read-out: IZ
Rattus norvegicus = assay: Anti-inflammatory activity in Rattus norvegicus Wistar albino (rat) assessed as inhibition of carrageenan-induced paw edema at 10 mg/kg, po relative to untreated control

Row | Structure (SMILES) | zone of inhibition at 10 µg/disc (Aspergillus niger) | zone of inhibition at 10 µg/disc (Candida albicans) | zone of inhibition at 10 µg/disc (Pseudomonas aeruginosa) | zone of inhibition at 10 µg/disc (Escherichia coli) | zone of inhibition at 10 µg/disc (Bacillus subtilis) | zone of inhibition at 10 µg/disc (Staphylococcus aureus) | inhibition in vivo at 10 mg/kg (Rattus norvegicus)
1 | Clc1ccc(OCc2ccccc2-c2nc(CN3CCN(C(c4ccccc4)c4ccc(Cl)cc4)CC3)cs2)cc1 (stereo not drawn) | 25 mm | 28 mm | 26 mm | 28 mm | 26 mm | 27 mm | 76.4%
2 | Cc1ccccc1OCc1ccccc1-c1nc(COc2ccc(Cl)cc2)cs1 | 16 mm | 20 mm | 20 mm | 22 mm | 18 mm | 20 mm | 65.1%
3 | Cc1cccc(OCc2ccccc2-c2nc(COc3ccc(Cl)cc3)cs2)c1 | 18 mm | 22 mm | 18 mm | 20 mm | 22 mm | 24 mm | 67.7%
4 | Cc1ccc(OCc2ccccc2-c2nc(COc3ccc(Cl)cc3)cs2)cc1 | 18 mm | 20 mm | 17 mm | 24 mm | 19 mm | 22 mm | 68.7%
5 | Clc1ccc(OCc2csc(-c3ccccc3COc3ccc(Cl)cc3)n2)cc1 | 24 mm | 26 mm | 24 mm | 26 mm | 27 mm | 28 mm | 76.4%
6 | Cc1ccccc1OCc1ccccc1-c1nc(-c2ccc(O)c(C(N)=O)c2)cs1 | 18 mm | 16 mm | 21 mm | 20 mm | 18 mm | 18 mm | 40.5%
7 | Cc1cccc(OCc2ccccc2-c2nc(-c3ccc(O)c(C(N)=O)c3)cs2)c1 | 11 mm | 18 mm | 22 mm | 20 mm | 22 mm | 22 mm | 42.9%
8 | Cc1ccc(OCc2ccccc2-c2nc(-c3ccc(O)c(C(N)=O)c3)cs2)cc1 | 18 mm | 20 mm | 20 mm | 19 mm | 20 mm | 20 mm | 46.7%
9 | NC(=O)c1cc(-c2csc(-c3ccccc3COc3ccc(Cl)cc3)n2)ccc1O | 25 mm | 27 mm | 24 mm | 28 mm | 26 mm | 28 mm | 72.2%
10 | Cc1ccccc1OCc1ccccc1-c1nc(-c2cc(Cl)sc2S(N)(=O)=O)cs1 | 16 mm | 18 mm | 22 mm | 20 mm | 20 mm | 22 mm | 70.1%
11 | Cc1cccc(OCc2ccccc2-c2nc(-c3cc(Cl)sc3S(N)(=O)=O)cs2)c1 | 18 mm | 19 mm | 18 mm | 20 mm | 16 mm | 18 mm | 66.8%
12 | Cc1ccc(OCc2ccccc2-c2nc(-c3cc(Cl)sc3S(N)(=O)=O)cs2)cc1 | 16 mm | 20 mm | 20 mm | 22 mm | 18 mm | 20 mm | 68.7%
13 | NS(=O)(=O)c1sc(Cl)cc1-c1csc(-c2ccccc2COc2ccc(Cl)cc2)n1 | 24 mm | 26 mm | 24 mm | 26 mm | 28 mm | 28 mm | 76.4%
14 | Cc1ccccc1OCc1ccccc1-c1nc(-c2cccc(Br)c2)cs1 | 11 mm | 10 mm | 8 mm | 8 mm | 12 mm | 10 mm | 40.4%
15 | Cc1cccc(OCc2ccccc2-c2nc(-c3cccc(Br)c3)cs2)c1 | 16 mm | 14 mm | 10 mm | 10 mm | 10 mm | 12 mm | 46.7%
16 | Cc1ccc(OCc2ccccc2-c2nc(-c3cccc(Br)c3)cs2)cc1 | 11 mm | 14 mm | 10 mm | 8 mm | 12 mm | 10 mm | 44.5%

Row | Structure (SMILES) | zone of inhibition at 10 µg/disc (Aspergillus niger) | zone of inhibition at 10 µg/disc (Candida albicans) | zone of inhibition at 10 µg/disc (Pseudomonas aeruginosa) | zone of inhibition at 10 µg/disc (Escherichia coli) | zone of inhibition at 10 µg/disc (Bacillus subtilis) | zone of inhibition at 10 µg/disc (Staphylococcus aureus) | inhibition in vivo at 10 mg/kg (Rattus norvegicus)
17 | Clc1ccc(OCc2ccccc2-c2nc(-c3cccc(Br)c3)cs2)cc1 | 18 mm | 20 mm | 18 mm | 22 mm | 20 mm | 22 mm | 42.9%
18 | Cc1ccccc1OCc1ccccc1-c1nc(-c2ccc([N+](=O)[O-])cc2)cs1 | 14 mm | 12 mm | 10 mm | 14 mm | 12 mm | 10 mm | 46.7%
19 | Cc1cccc(OCc2ccccc2-c2nc(-c3ccc([N+](=O)[O-])cc3)cs2)c1 | 8 mm | 9 mm | 10 mm | 11 mm | 12 mm | 8 mm | 46.7%
20 | Cc1ccc(OCc2ccccc2-c2nc(-c3ccc([N+](=O)[O-])cc3)cs2)cc1 | 14 mm | 11 mm | 12 mm | 10 mm | 10 mm | 12 mm | 56.9%
21 | O=[N+]([O-])c1ccc(-c2csc(-c3ccccc3COc3ccc(Cl)cc3)n2)cc1 | 18 mm | 20 mm | 18 mm | 22 mm | 18 mm | 22 mm | 67.1%
22 | Cc1ccccc1OCc1ccccc1-c1nc(CN2CCN(C(c3ccccc3)c3ccccc3)CC2)cs1 | 8 mm | 9 mm | 18 mm | 20 mm | 23 mm | 23 mm | 64%
23 | Cc1cccc(OCc2ccccc2-c2nc(CN3CCN(C(c4ccccc4)c4ccccc4)CC3)cs2)c1 | 11 mm | 10 mm | 20 mm | 22 mm | 20 mm | 19 mm | 64.1%
24 | Cc1ccc(OCc2ccccc2-c2nc(CN3CCN(C(c4ccccc4)c4ccccc4)CC3)cs2)cc1 | 8 mm | 10 mm | 18 mm | 18 mm | 21 mm | 20 mm | 63.9%
25 | Clc1ccc(OCc2ccccc2-c2nc(CN3CCN(C(c4ccccc4)c4ccccc4)CC3)cs2)cc1 | 24 mm | 28 mm | 26 mm | 28 mm | 26 mm | 28 mm | 64.9%
26 | Cc1ccccc1OCc1ccccc1-c1nc(CN2CCN(C(c3ccccc3)c3ccc(Cl)cc3)CC2)cs1 (stereo not drawn) | 20 mm | 22 mm | 24 mm | 26 mm | 28 mm | 28 mm | 63.1%
27 | Cc1cccc(OCc2ccccc2-c2nc(CN3CCN(C(c4ccccc4)c4ccc(Cl)cc4)CC3)cs2)c1 (stereo not drawn) | 18 mm | 20 mm | 25 mm | 27 mm | 28 mm | 28 mm | 62.6%
28 | Cc1ccc(OCc2ccccc2-c2nc(CN3CCN(C(c4ccccc4)c4ccc(Cl)cc4)CC3)cs2)cc1 (stereo not drawn) | 19 mm | 20 mm | 24 mm | 28 mm | 28 mm | 28 mm | 56.9%
29 | O=C(O)c1cn(C2CC2)c2cc(N3CCNCC3)c(F)cc2c1=O [CIPROFLOXACIN] | – | – | 25 mm | 28 mm | 26 mm | 26 mm | –
30 | O=C(O)Cc1ccccc1Nc1c(Cl)cccc1Cl [DICLOFENAC SODIUM] | – | – | – | – | – | – | 75.9%
31 | OC(Cn1cncn1)(Cn1cncn1)c1ccc(F)cc1F [FLUCONAZOLE] | 25 mm | 26 mm | – | – | – | – | –
